{
  "source": "patent US8563542B2",
  "about": "(Cyclacel Limited, priority 2007, dated 2013)",
  "note": "Where a name gives a salt, the structure may show the parent alone.",
  "data": [
    {"biological_target": "T1, AA (Homo sapiens, UniProt O14965)", "T1 sequence (O14965 1-403)": "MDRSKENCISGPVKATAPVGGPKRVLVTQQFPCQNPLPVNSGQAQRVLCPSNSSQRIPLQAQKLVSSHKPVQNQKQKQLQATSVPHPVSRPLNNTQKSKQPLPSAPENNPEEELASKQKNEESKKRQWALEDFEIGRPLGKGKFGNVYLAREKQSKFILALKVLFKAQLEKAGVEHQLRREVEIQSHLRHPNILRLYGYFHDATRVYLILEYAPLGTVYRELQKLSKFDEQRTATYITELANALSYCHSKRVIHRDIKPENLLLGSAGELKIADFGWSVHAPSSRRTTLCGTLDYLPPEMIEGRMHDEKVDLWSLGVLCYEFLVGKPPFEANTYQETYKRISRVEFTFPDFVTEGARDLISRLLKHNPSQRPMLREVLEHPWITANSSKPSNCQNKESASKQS", "assay": "AA IC50 (Table 1; no method given)", "type": "biochemical", "settings": "Table 1; read-out: AA IC50", "units": {"IC50": "nM"}, "values": [
      {"molecule": "COc1cc(C(=O)O)ccc1Nc1ncc2c(n1)N(C1CCCCC1)CCC(=O)N2", "note": "[compound 9, 4-(9-Cyclohexyl-6-oxo-6,7,8,9-tetrahydro-5H-pyrimido[4,5-b][1,4]diazepin-2-ylamino)-3-methoxy-benzoic acid]", "IC50": "1000 to 10000"}
    ]},
    {"biological_target": "T1, AA", "assay": "AA IC50 (Table 1; no method given)", "type": "biochemical", "settings": "Table 2, AurA IC50; class symbols; read-out: AurA IC50", "units": {"IC50": "nM"}, "values": [
      {"molecule": "CN1C(=O)CCN(C(C)(C)C)c2nc(Nc3ccc(C(=O)O)cc3)ncc21", "note": "[compound 43, 4-(9-tert-Butyl-5-methyl-6-oxo-6,7,8,9-tetrahydro-5H-pyrimido[4,5-b][1,4]diazepin-2-ylamino)-benzoic acid]", "IC50": "< 1000"},
      {"molecule": "COc1cc(C(=O)NC2CCN(C)CC2)ccc1Nc1ncc2c(n1)N(Cc1ccc(OC)c(OC)c1)CC(C)C(=O)N2C", "note": "(centres unmarked) [compound 44, 4-[9-(3,4-Dimethoxy-benzyl)-5,7-dimethyl-6-oxo-6,7,8,9-tetrahydro-5H-pyrimido[4,5-b][1,4]diazepin-2-ylamino]-3-methoxy-N-(1-methyl-piperidin-4-yl)-benzamide]", "IC50": "< 10000"},
      {"molecule": "COc1ccc(CN2CC(C)C(=O)N(C)c3cnc(Nc4ccc(C(=O)O)cc4)nc32)cc1OC", "note": "(centres unmarked) [compound 45, 4-[9-(3,4-Dimethoxy-benzyl)-5,7-dimethyl-6-oxo-6,7,8,9-tetrahydro-5H-pyrimido[4,5-b][1,4]diazepin-2-ylamino]-benzoic acid]", "IC50": "< 10000"},
      {"molecule": "CN1CCC(NC(=O)c2ccc(Nc3ncc4c(n3)N(C3CCCC3)CCC(=O)N4C)cc2)CC1", "note": "[compound 64, 4-(9-Cyclopentyl-5-methyl-6-oxo-6,7,8,9-tetrahydro-5H-pyrimido[4,5-b][1,4]diazepin-2-ylamino)-N-(1-methyl-piperidin-4-yl)-benzamide]", "IC50": "< 100"},
      {"molecule": "Cc1cc(Nc2ncc3c(n2)N(C2CCCC2)CCC(=O)N3C)ccc1Cl", "note": "[compound 72, 2-(4-Chloro-3-methyl-phenylamino)-9-cyclopentyl-5-methyl-5,7,8,9-tetrahydro-pyrimido[4,5-b][1,4]diazepin-6-one]", "IC50": "< 1000"},
      {"molecule": "CN1C(=O)CCN(c2ccccc2F)c2nc(Nc3ccc4c(c3)CS(=O)(=O)C4)ncc21", "note": "[compound 73, 2-(2,2-Dioxo-2,3-dihydro-1H-2lambda*6*- benzo[c]thiophen-5-ylamino)-9-(2-fluoro-phenyl)-5-methyl-5,7,8,9-tetrahydro-pyrimido[4,5-b][1,4]diazepin-6-one]", "IC50": "< 100"},
      {"molecule": "CN1C(=O)CCN(c2ccccc2)c2nc(Nc3ccc4c(c3)CS(=O)(=O)C4)ncc21", "note": "[compound 75, 2-(2,2-Dioxo-2,3-dihydro-1H-2lambda*6*- benzo[c]thiophen-5-ylamino)-5-methyl-9-phenyl-5,7,8,9-tetrahydro-pyrimido[4,5-b][1,4]diazepin-6-one]", "IC50": "< 100"},
      {"molecule": "CCC(CC)N1CCC(=O)N(C)c2cnc(Nc3ccc4c(c3)CS(=O)(=O)C4)nc21", "note": "[compound 79, 2-(2,2-Dioxo-2,3-dihydro-1H-2lambda*6*- benzo[c]thiophen-5-ylamino)-9-(1-ethyl-propyl)-5-methyl-5,7,8,9-tetrahydro-pyrimido[4,5-b][1,4]diazepin-6-one]", "IC50": "< 100"},
      {"molecule": "CC(C)C1CC(=O)N(C)c2cnc(Nc3ccc4c(c3)CS(=O)(=O)C4)nc2N1C1CCCC1", "note": "(centres unmarked) [compound 80, 9-Cyclopentyl-2-(2,2-dioxo-2,3-dihydro-1H-2lambda*6*-benzo[c]thiophen-5-ylamino)-8-isopropyl-5-methyl-5,7,8,9-tetrahydro-pyrimido[4,5-b][1,4]diazepin-6-one]", "IC50": "< 1000"},
      {"molecule": "CN1C(=O)CCN(C2CCOCC2)c2nc(Nc3ccc4c(c3)CS(=O)(=O)C4)ncc21", "note": "[compound 81, 2-(2,2-Dioxo-2,3-dihydro-1H-2lambda*6*- benzo[c]thiophen-5-ylamino)-5-methyl-9-(tetrahydro-pyran-4-yl)-5,7,8,9-tetrahydro-pyrimido[4,5-b][1,4]diazepin-6-one]", "IC50": "< 1000"}
    ]},
    {"biological_target": "PLK1 (Homo sapiens, UniProt P53350)", "sequence (P53350 whole entry)": "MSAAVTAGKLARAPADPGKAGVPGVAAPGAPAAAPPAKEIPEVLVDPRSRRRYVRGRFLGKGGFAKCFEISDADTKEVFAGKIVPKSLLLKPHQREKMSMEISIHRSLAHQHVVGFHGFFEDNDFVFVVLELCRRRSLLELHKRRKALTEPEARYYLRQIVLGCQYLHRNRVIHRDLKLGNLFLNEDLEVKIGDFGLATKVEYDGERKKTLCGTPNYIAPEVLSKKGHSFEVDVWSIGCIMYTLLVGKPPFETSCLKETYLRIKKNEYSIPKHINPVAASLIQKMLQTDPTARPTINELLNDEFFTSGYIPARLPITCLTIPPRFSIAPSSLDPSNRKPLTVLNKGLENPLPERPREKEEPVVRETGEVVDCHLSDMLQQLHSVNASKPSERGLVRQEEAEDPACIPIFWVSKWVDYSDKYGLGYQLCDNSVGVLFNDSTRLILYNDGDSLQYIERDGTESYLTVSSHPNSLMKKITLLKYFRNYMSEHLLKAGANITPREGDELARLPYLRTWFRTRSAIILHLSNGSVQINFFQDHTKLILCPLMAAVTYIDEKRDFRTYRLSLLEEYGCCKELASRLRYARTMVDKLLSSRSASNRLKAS", "assay": "PLK1 protein kinase assay (CDC25C phosphorylation, [γ-32P]-ATP)", "type": "biochemical", "settings": "Table 2, PLK1 IC50; class symbols; read-out: PLK1 IC50", "units": {"IC50": "nM"}, "values": [
      {"molecule": "COc1cc(C(=O)NC2CCN(C)CC2)ccc1Nc1ncc2c(n1)N(c1ccccc1C)CCC(=O)N2C", "note": "[compound 308, 3-Methoxy-4-(5-methyl-6-oxo-9-o-tolyl-6,7,8,9-tetrahydro-5H-pyrimido[4,5-b][1,4]diazepin-2-ylamino)-N-(1-methyl-piperidin-4-yl)-benzamide]", "IC50": "< 10000"},
      {"molecule": "COc1cc(C(=O)NC2CCCN(C)C2)ccc1Nc1ncc2c(n1)N(c1ccccc1C)CCC(=O)N2C", "note": "(centres unmarked) [compound 309, 3-Methoxy-4-(5-methyl-6-oxo-9-o-tolyl-6,7,8,9-tetrahydro-5H-pyrimido[4,5-b][1,4]diazepin-2-ylamino)-N-(1-methyl-piperidin-3-yl)-benzamide]", "IC50": "< 10000"},
      {"molecule": "COc1cc(C(=O)NC2CCN(Cc3ccccc3)CC2)ccc1Nc1ncc2c(n1)N(c1ccccc1C)CCC(=O)N2C", "note": "[compound 310, N-(1-Benzyl-piperidin-4-yl)-3-methoxy-4-(5-methyl-6-oxo-9-o-tolyl-6,7,8,9-tetrahydro-5H-pyrimido[4,5-b][1,4]diazepin-2-ylamino)-benzamide]", "IC50": "< 10000"},
      {"molecule": "COc1cc(C(=O)NC2CN3CCC2CC3)ccc1Nc1ncc2c(n1)N(c1ccccc1C)CCC(=O)N2C", "note": "(centres unmarked) [compound 311, N-(1-Aza-bicyclo[2.2.2]oct-3-yl)-3-methoxy-4-(5-methyl-6-oxo-9-o-tolyl-6,7,8,9-tetrahydro-5H-pyrimido[4,5-b][1,4]diazepin-2-ylamino)-benzamide]", "IC50": "< 1000"},
      {"molecule": "COc1cc(C(=O)NC2CC(C)(C)N(C)C(C)(C)C2)ccc1Nc1ncc2c(n1)N(c1ccccc1C)CCC(=O)N2C", "note": "[compound 312, 3-Methoxy-4-(5-methyl-6-oxo-9-o-tolyl-6,7,8,9-tetrahydro-5H-pyrimido[4,5-b][1,4]diazepin-2-ylamino)-N-(1,2,2,6,6-pentamethyl-piperidin-4-yl)-benzamide]", "IC50": "< 10000"},
      {"molecule": "CCN(CC)CCNC(=O)c1ccc(Nc2ncc3c(n2)N(c2ccccc2C)CCC(=O)N3C)c(OC)c1", "note": "[compound 313, N-(2-Diethylamino-ethyl)-3-methoxy-4-(5-methyl-6-oxo-9-o-tolyl-6,7,8,9-tetrahydro-5H-pyrimido[4,5-b][1,4]diazepin-2-ylamino)-benzamide]", "IC50": "< 10000"},
      {"molecule": "COc1ccc(N2CCC(=O)N(C)c3cnc(Nc4ccc(C(=O)NC5CCN(C)CC5)cc4OC)nc32)cc1", "note": "[compound 314]", "IC50": "< 1000"},
      {"molecule": "COc1ccc(N2CCC(=O)N(C)c3cnc(Nc4ccc(C(=O)NC5CCCN(C)C5)cc4OC)nc32)cc1", "note": "(centres unmarked) [compound 315]", "IC50": "< 1000"},
      {"molecule": "COc1ccc(N2CCC(=O)N(C)c3cnc(Nc4ccc(C(=O)NC5CCN(Cc6ccccc6)CC5)cc4OC)nc32)cc1", "note": "[compound 316, N-(1-Benzyl-piperidin-4-yl)-3-methoxy-4-[9-(4-methoxy-phenyl)-5-methyl-6-oxo-6,7,8,9-tetrahydro-5H-pyrimido[4,5-b][1,4]diazepin-2-ylamino]-benzamide]", "IC50": "< 1000"},
      {"molecule": "COc1ccc(N2CCC(=O)N(C)c3cnc(Nc4ccc(C(=O)NC5CN6CCC5CC6)cc4OC)nc32)cc1", "note": "(centres unmarked) [compound 317, N-(1-Aza-bicyclo[2.2.2]oct-3-yl)-3-methoxy-4-[9-(4-methoxy-phenyl)-5-methyl-6-oxo-6,7,8,9-tetrahydro-5H-pyrimido[4,5-b][1,4]diazepin-2-ylamino]-benzamide]", "IC50": "< 1000"},
      {"molecule": "COc1ccc(N2CCC(=O)N(C)c3cnc(Nc4ccc(C(=O)NC5CC(C)(C)N(C)C(C)(C)C5)cc4OC)nc32)cc1", "note": "[compound 318]", "IC50": "< 1000"},
      {"molecule": "CCN(CC)CCNC(=O)c1ccc(Nc2ncc3c(n2)N(c2ccc(OC)cc2)CCC(=O)N3C)c(OC)c1", "note": "[compound 319, N-(2-Diethylamino-ethyl)-3-methoxy-4-[9-(4-methoxy-phenyl)-5-methyl-6-oxo-6,7,8,9-tetrahydro-5H-pyrimido[4,5-b][1,4]diazepin-2-ylamino]-benzamide]", "IC50": "< 10000"},
      {"molecule": "COc1cc(C(=O)NCC(=O)N2CCN(C(C)C)CC2)ccc1Nc1ncc2c(n1)N(C1CCCC1)CC1(CC1)C(=O)N2C", "note": "[compound 321]", "IC50": "< 1000"},
      {"molecule": "COc1cc(C(=O)NC2CCN(Cc3ccccc3)C2)ccc1Nc1ncc2c(n1)N(C1CCCC1)CC1(CC1)C(=O)N2C", "note": "(centres unmarked) [compound 322, N-(Benzyl-pyrrolidin-3-yl)-4-(9-cyclopentyl-5-methyl-6-oxo-6,7,8,9-tetrahydro-5H-spiro[pyrimido[4,5-b][1,4]diazepin-3,1′-cyclopropane]-2-ylamino)-3-methoxy-N-benzamide]", "IC50": "< 100"},
      {"molecule": "CN1CCC(NC(=O)c2ccc(Nc3ncc4c(n3)N(C3CCCC3)CC3(CC3)C(=O)N4C)c(F)c2)CC1", "note": "[compound 323, 4-(9-Cyclopentyl-5-methyl-6-oxo-6,7,8,9-tetrahydro-5H-spiro[pyrimido[4,5-b][1,4]diazepin-3,1′-cyclopropane]-2-ylamino)-3-fluoro-N-(1-methyl-piperidin-4-yl)-benzamide]", "IC50": "< 100"},
      {"molecule": "COc1cc(C(=O)NC2CCN(C)CC2)ccc1Nc1ncc2c(n1)N(C1CCCC1)CC1(CC1)C(=O)N2C", "note": "[compound 341, 4-(9-Cyclopentyl-5-methyl-6-oxo-6,7,8,9-tetrahydro-5H-spiro[pyrimido[4,5-b][1,4]diazepin-3,1′-cyclopropane]-2-ylamino)-3-methoxy-N-(1-methyl-piperidin-4-yl)-benzamide mesylate]", "IC50": "< 100"},
      {"molecule": "COc1cc(C(=O)NC2CCN(CC(=O)O)CC2)ccc1Nc1ncc2c(n1)N(C1CCCC1)CCC(=O)N2C", "note": "[compound 343]", "IC50": "< 1000"},
      {"molecule": "COc1cc(C(=O)NC2CCN(C(C)C)CC2)ccc1Nc1ncc2c(n1)N(C1CCCC1)CCC(=O)N2C", "note": "[compound 344, 4-(9-Cyclopentyl-5-methyl-6-oxo-6,7,8,9-tetrahydro-5H-pyrimido[4,5-b][1,4]diazepin-2-ylamino)-N-(1-isopropyl-piperidin-4-yl)-3-methoxy-benzamide]", "IC50": "< 100"}
    ]}
  ]
}
